Experimental data reported in patent US8518965B2, “Compositions and methods for treating cancer” (Trustees of Dartmouth College, priority 2009, dated 2013).
Where two headings read alike, the source gives them in different places. Marks after values point to notes of the source that are not given here. Each block holds one compound with its values, some of them ahead of it.

Assays:
[1] = test system: HCT116 human colon cancer cells; test: Colony formation assay, HCT116 cells; assay type: cell-based; conditions: 72 hours with compound, colonies counted after 24 days (Example 9), read-out: IC50
Procedure: (§1) NCI/ADR-RES human breast cancer cells (500 cells), HCT116 human colon cancer cells (400 cells) or SF 295 human glioblastoma cells (1000 cells) were plated in 60 mm Petri dishes containing 2.7 ml of medium (modified McCoy's 5a medium containing 10% fetal bovine serum and 100 units/ml penicillin and 100 μg/ml streptomycin). The cells were incubated in a CO2 incubator at 37° C. for 5 hours for attachment to the bottom of Petri dishes. Compounds were prepared fresh in medium at ten times the final concentration, and then 0.3 ml of this stock solution was added to the 2.7 ml of medium in the dish. The cells were then incubated with compounds for 72 hours at 37° C. At the end of incubation, the compound-containing media were decanted, the dishes were rinsed with 4 ml of Hank's Balance Salt Solution (HBSS), 5 ml of fresh medium was added, and the dishes were returned to the incubator for colony formation. The cell colonies were counted using a colony counter after incubation for 14 days for NCI/ADR-RES cells and 10 days for HCT116 cells and SF 295 cells. Cell survival was calculated and the IC50 values (the drug concentration producing 50% inhibition of colony formation) were determined for each tested compound.
Four hundred HCT116 cells were plated in 60 mm Petri dishes containing 2.7 ml of medium (modified McCoy's 5a medium containing 10% fetal bovine serum and 100 units/ml penicillin and 100 μg/ml streptomycin). The cells were incubated in a CO2 incubator at 37° C. for 5 hours for attachment to the bottom of Petri dishes. Compounds were prepared fresh in medium at ten times the final concentration, and then 0.3 ml of this stock solution was added to the 2.7 ml of medium in the dish. The cells were then incubated with drugs for 72 hours at 37° C. At the end of incubation the compound-containing media were decanted, the dishes were rinsed with 4 ml of Hank's Balance Salt Solution (HBSS), 5 ml of fresh medium was added, and the dishes were returned to the incubator for colony formation. HCT116 cell colonies were counted using a colony counter after […] of incubation. Cell survival was calculated and IC50 values were determined for each compound tested.

[2] = test system: SF 295 human glioblastoma cells; test: Colony formation assay, SF 295 cells; assay type: cell-based; conditions: for Killing / inhibition of the growth of SF 295 human glioblastoma cells (in words): Example 10; for IC50: Homo sapiens, SF 295 cells, 72 hours with compound, colonies counted after 10 days (Example 10), read-out: IC50
Procedure: as §1
One thousand SF 295 cells were plated in 60 mm Petri dishes containing 2.7 ml of medium (modified McCoy's 5a medium containing 10% fetal bovine serum and 100 units/ml penicillin and 100 μg/ml streptomycin). The cells were incubated in a CO2 incubator at 37° C. for 5 hours for attachment to the bottom of Petri dishes. Compounds were prepared fresh in medium at ten times the final concentration, and then 0.3 ml of this stock solution was added to the 2.7 ml of medium in the dish. The cells were then incubated with the compounds for 72 hours at 37° C. At the end of incubation, the compound-containing media were decanted, the dishes were rinsed with 4 ml of Hank's Balance Salt Solution (HBSS), 5 ml of fresh medium was added, and the dishes were returned to the incubator for colony formation. After incubation for 10 days, the cell colonies were counted using a colony counter. Cell survival was calculated and the values of IC50 were determined for each compound tested.

normal C3H/HeN mice = test: Maximum tolerated dose (MTD40) in normal mice; conditions: suspension formulation, single intraperitoneal injection, 40 days
Procedure: The MTD40 (maximum tolerated dose at day 40) values were determined on normal C3H/HeN mice using standard procedures. […] The result of this exercise was two dosages, one apparently nonlethal and the other lethal, if severe and irreversible toxicity occurred and euthanasia was required. Six mice were dosed at each dosage. If no severe and irreversible toxicity occurred at the lower dosage and at least one with severe and irreversible toxicity at the higher dose, then the lower dose was considered to be the MTD.
Compounds were administered to C3H/HeN mice by intraperitoneal injection (5% alcohol, 5% CREMOPHOR® EL, and 90% saline, 0.5 ml/20 gram, single injection). Drug toxicity was evaluated on mice checked daily for 40 days. The toxicity parameters reported were the MTD40. […] At the end of experiment, all mice were euthanized.
The toxicity parameters reported were the MTD40. At the end of experiment, all mice will be euthanized.

[3] = Solubility in solvents and buffers; assay type: physicochemical
Procedure: Characterization of D11B. The solubility of D11B in different solvents was analyzed (Table 1).
(§2) The solubility of D11B in various combinations of solvents was also analyzed. […] For the analysis of co-solvents, stock solutions were prepared by dissolving D11B in a corresponding solvent. Stock solutions of D11B in dimethylsulfoxide (DMSO) were prepared at 25° C., and stock solutions of D11B in PEG-400, CREMOPHOR® EL and Polysorbate 80 were prepared at 100° C. Injection solutions, in water (0.3 mg/ml), were prepared by dropwise addition of the stock solution to a required volume of vigorously stirred hot water (80° C.).
The solubility of D11B×2AH in DMSO, PEG-400, EtOH, and buffer was determined (Table 7).

[4] = State of stock and injection solutions in water + co-solvents; assay type: physicochemical
Procedure: as §2
Additional solubility determinations were carried out with D11B×2AH in water+co-solvents. For this analysis, stock solutions were prepared by dissolving D11B×2AH in a corresponding solvent. Stock solutions of D11B×2AH in DMSO were prepared at 25° C. and stock solutions of D11B×2AH in PEG-400 were prepared at 100° C.
Injection solutions in water (0.3 mg/ml) were prepared by dropwise addition of each stock solution to a required volume of vigorously stirred water.

[5] = Homo sapiens, HCT-116, HCT116 cells

SMILES: c1ccc2c(Nc3ccc(Oc4ccc(Nc5ccnc6ccccc56)cc4)cc3)ccnc2c1 [Compound D245B]
Killing / inhibition of the growth of SF 295 human glioblastoma cells (in words) [2]: effective
IC50 [2]: 133 nM
IC50 ([1]; HCT116 cells): 79 nM
IC50 [1, 5]: 122 nM
Values of MTD40 (normal C3H/HeN mice): 25 mg/kg

SMILES: Cc1cc(Nc2ccc(Oc3ccc(Nc4cc(C)nc5ccccc45)cc3)cc2)c2ccccc2n1 [Compound D288]
Killing / inhibition of the growth of SF 295 human glioblastoma cells (in words) [2]: effective
IC50 [2]: 85 nM
Values of MTD40 (normal C3H/HeN mice): 25 mg/kg

SMILES: c1ccc2c(Nc3ccc(Oc4ccc(Nc5c6ccccc6nc6ccccc56)cc4)cc3)c3ccccc3nc2c1 [D11Bx2AH 1, D11B digluconate]
Solubility (mg/ml), 25° C. ([3]; D11Bx2AH salts, DMSO, listed as 1): 31 mg/mL
Solubility (mg/ml), 25° C. ([3]; D11Bx2AH salts, PEG-400, samples were dissolved at 100° C., listed as 1): >10 mg/mL
solubility ([3]; EtOH, 25 °C, organic solvent or mixture, D11Bx2AH salts, EtOH, read-out: Solubility (mg/ml), 25° C.): > 1 mg/mL
solubility ([3]; PEG-400, organic solvent or mixture, PEG-400 (Table 16), heating to 100° C. was required, read-out: Solubility): > 10 mg/mL
solubility ([3]; buffer, 25 °C, pH 4, aqueous buffer, D11Bx2AH salts, Buffer (pH = 4), even at 100° C., read-out: Solubility (mg/ml), 25° C.): > 0.5 mg/mL
solubility ([3]; buffer, 25 °C, pH 6, aqueous buffer, D11Bx2AH salts, Buffer (pH = 6), even at 100° C., read-out: Solubility (mg/ml), 25° C.): > 0.5 mg/mL
State of the stock solution ([4]; digluconate (1) in DMSO, 22 mg/ml): clear
State of the stock solution ([4]; digluconate (1) in DMSO, 31 mg/ml): clear
State of the injection solution ([4]; digluconate (1) in H2O—DMSO 0.3 mg/ml, stock 22 mg/ml, DMSO 1.50 wt. %): clear
State of the injection solution ([4]; digluconate (1) in H2O—DMSO 0.3 mg/ml, stock 31 mg/ml, DMSO 1.06 wt. %): clear

SMILES: c1ccc2c(Nc3ccc(Oc4ccc(Nc5c6ccccc6nc6ccccc56)cc4)cc3)c3ccccc3nc2c1 [D11Bx2AH 4, D11B dilactabionate]
Solubility (mg/ml), 25° C. ([3]; D11Bx2AH salts, DMSO, listed as 4): 40 mg/mL
Solubility (mg/ml), 25° C. ([3]; D11Bx2AH salts, PEG-400, samples were dissolved at 100° C., listed as 4): >10 mg/mL
Solubility (mg/ml) ([3]; PEG-400 (Table 16), heating to 100° C. was required, listed as dilactabionate (4)): >10^ mg/ml
State of the stock solution ([4]; dilactobionate (4) in DMSO, 20 mg/ml): clear
State of the stock solution ([4]; dilactobionate (4) in DMSO, 40 mg/ml): clear
State of the injection solution ([4]; dilactobionate (4) in H2O—DMSO 0.3 mg/ml, stock 20 mg/ml, DMSO 1.36 wt. %): clear
State of the injection solution ([4]; dilactobionate (4) in H2O—DMSO 0.3 mg/ml, stock 40 mg/ml, DMSO 0.68 wt. %): clear

SMILES: c1ccc2c(Nc3ccc(Oc4ccc(Nc5c6ccccc6nc6ccccc56)cc4)cc3)c3ccccc3nc2c1 [D11Bx2AH 6, D11B digallate]
Solubility (mg/ml), 25° C. ([3]; D11Bx2AH salts, DMSO, listed as 6): 325 mg/mL
Solubility (mg/ml) ([3]; PEG-400 (Table 16), heating to 100° C. was required, listed as digallate (6)): 20^a mg/ml
solubility ([3]; PEG-400, 25 °C, organic solvent or mixture, D11Bx2AH salts, PEG-400, samples were dissolved at 100° C., read-out: Solubility (mg/ml), 25° C.): 20 mg/mL
State of the stock solution ([4]; digalate (6) in DMSO, 20 mg/ml): clear
State of the stock solution ([4]; digalate (6) in DMSO, 39.9 mg/ml): clear
State of the stock solution ([4]; digalate (6) in DMSO, 77 mg/ml): clear
State of the stock solution ([4]; digalate (6) in DMSO, 158 mg/ml): clear
State of the stock solution ([4]; digalate (6) in DMSO, 325 mg/ml): clear
State of the injection solution ([4]; digalate (6) in H2O—DMSO 0.3 mg/ml, stock 20 mg/ml, DMSO 1.65 wt. %): clear
State of the injection solution ([4]; digalate (6) in H2O—DMSO 0.3 mg/ml, stock 39.9 mg/ml, DMSO 0.83 wt. %): clear
State of the injection solution ([4]; digalate (6) in H2O—DMSO 0.3 mg/ml, stock 325 mg/ml, DMSO 0.1 wt. %): prec.

SMILES: c1ccc2c(Nc3ccc(Oc4ccc(Nc5c6ccccc6nc6ccccc56)cc4)cc3)c3ccccc3nc2c1 [D11Bx2AH 7, D11B bis(3,4-dihydroxyphenylacetate)]
Solubility (mg/ml), 25° C. ([3]; D11Bx2AH salts, DMSO, listed as 7): 66 mg/mL
State of the stock solution ([4]; bis(3,4-dihydroxyphenylacetate) (7) in DMSO, 66 mg/ml): clear
State of the injection solution ([4]; bis(3,4-dihydroxyphenylacetate) (7) in H2O—DMSO 0.3 mg/ml, DMSO 0.5 wt. %): clear

More lines, main results first:

IC50 ([1]; HCT116 cells): 3340 nM
melting point: 263 to 264 °C
SMILES: c1cc(Nc2ccc(Oc3ccc(Nc4ccncc4)cc3)cc2)ccn1 [Compound 244B]

IC50 ([1]; HCT116 cells): 722 nM
melting point: 338 to 340 °C
SMILES: c1ccc2c(Nc3ccc(Oc4ccc(Nc5c6ccccc6nc6ncccc56)cc4)cc3)c3cccnc3nc2c1 [Compound 254B]

IC50 [1, 5]: 4220 nM
SMILES: c1cc(Nc2ccc(Oc3ccc(Nc4ccncc4)cc3)cc2)ccn1 [Compound D244]

IC50 ([1]; HCT116 cells): 1460 nM
SMILES: c1ccc2c(Nc3ccc(Oc4ccc(Nc5c6ccccc6nc6ncccc56)cc4)cc3)c3cccnc3nc2c1 [Compound D254]

IC50 [2]: 1420 nM
melting point: 114 to 115 °C
SMILES: c1ccc2c(c1)Cc1c-2nc2ccccc2c1Nc1ccc(Oc2ccc(Nc3c4c(nc5ccccc35)-c3ccccc3C4)cc2)cc1 [Compound D275]
Killing / inhibition of the growth of SF 295 human glioblastoma cells (in words) [2]: effective

IC50 [2]: > 5000 nM
melting point: 372 °C
SMILES: c1nc(Nc2ccc(Oc3ccc(Nc4ncnc5[nH]cnc45)cc3)cc2)c2nc[nH]c2n1 [Compound D276]

IC50 [2]: > 5000 nM
melting point: 110 to 112 °C
SMILES: c1ccc2c(Nc3ccc(Oc4ccc(Nc5nccc6ccccc56)cc4)cc3)nccc2c1 [Compound D278]

IC50 [2]: > 5000 nM
melting point: 124 to 125 °C
SMILES: c1ccc2c(Nc3ccc(Oc4ccc(Nc5ncnc6ccccc56)cc4)cc3)ncnc2c1 [Compound D281]

IC50 [2]: > 5000 nM
melting point: 362 °C
SMILES: c1ccc2c(Nc3ccc(Oc4ccc(Nc5cnnc6ccccc56)cc4)cc3)cnnc2c1 [Compound D284]
